# Source: patent publication US12630497B2, “Compound having malate dehydrogenase inhibitory activity and pharmaceutical composition for preventing or treating cancer comprising same as active ingredient” (DONGGUK UNIVERSITY INDUSTRY-ACADEMIC COOPERATION FOUNDATION, priority 2017, dated 2026)
# Biological target: T1, MDH1 (Homo sapiens, UniProt P40925)
# T1 sequence (P40925 1-334): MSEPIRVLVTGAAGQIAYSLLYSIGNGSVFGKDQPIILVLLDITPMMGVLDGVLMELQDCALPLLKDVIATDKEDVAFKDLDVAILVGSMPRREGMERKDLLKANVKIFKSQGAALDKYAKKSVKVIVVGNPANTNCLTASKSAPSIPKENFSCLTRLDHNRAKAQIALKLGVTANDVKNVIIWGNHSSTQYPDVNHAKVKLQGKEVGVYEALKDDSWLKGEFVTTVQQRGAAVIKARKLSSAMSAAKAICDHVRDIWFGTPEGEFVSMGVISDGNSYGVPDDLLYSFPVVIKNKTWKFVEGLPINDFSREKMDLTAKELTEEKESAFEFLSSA
# Experiment: MDH1 inhibitory activity (in vitro, NADH oxidation, absorbance 340 nm)
# Type: biochemical
# Parameters: purchased Biovision
# Conditions: 0.25 nM MDH1 recombinant protein, 200 μM oxaloacetate, 30 minutes
# Method: The inhibitory activity of the prepared compounds against MDH1 recombinant protein and the MDH2 recombinant proteins prepared in each of Experimental Examples 1-1, 1-2, 1-3 and 1-4 was measured. More specifically, 0.25 nM MDH1 recombinant protein (Biovision) or MDH2 recombinant protein was added to 200 μM oxaloacetate, nicotinamide adenine dinucleotide (NADH), the compound prepared in Example 1 and an MDH assay buffer (100 mM potassium phosphate, pH 7.4) to allow a reaction for 30 minutes. Afterward, a change in NADH concentration in the solution due to NADH oxidation (NAD^+) by an MDH1 or MDH2 enzyme was analyzed by measuring absorbance at 340 nm.
compound,measurement,value
"COC(=O)c1cccc(NC(=O)CCOc2ccc(C(C)(C)CC(C)(C)C)cc2)c1 [Compound 9-2, Methyl 3-(3-(4-(2,4,4-trimethylpentan-2-yl)phenoxy)propanamido)benzoate]",IC50,1000 to 5000 nM
